# Values quoted from earlier work, collected in US20100075916A1, “SUBSTITUTED QUINAZOLINE INHIBITORS OF GROWTH FACTOR RECEPTOR TYROSINE KINASES” (AUSPEX PHARMACEUTICALS, INC., priority 2008, published 2010).
# Columns and labels:
# [1] = humans
# [2] = vandetanib administration
smiles,measurement,setting,value
"COc1cc2c(Nc3ccc(Br)cc3F)ncnc2cc1OCC1CCN(C)CC1 [Vandetanib, N-(4-bromo-2-fluoro-phenyl)-6-methoxy-7-[(1-methyl-4-piperidyl)methoxy]quinazolin-4-amine]",elimination halflife,[1],approximately 120 hours
same,volume of distribution,[1],large volume of distribution
same,lag time before the drug is detectable in plasma,[1]; after oral administration,0.801 h
same,Ka (absorption),[1]; oral administration,0.476 h⁻¹
same,common side effects,[2],"rash, diarrhea, QTc prolongation, hypertension, and neutropenia"
